Laboratory results reported in patent US20080286815A1, “SPECTROPHOTOMETRIC ASSAY FOR HUMAN HISTONE DEACETYLASE 8” (THE UNIVERSITY OF AKRON, priority 2007, published 2008).
Ends that are not written are not given here.

How the values were obtained:
[1] = tested on: HeLa nuclear extracts enriched in HDAC1 and 2; assay: HPLC-based and DTNB-based assays with HeLa nuclear extracts; assay type: biochemical, human; settings: for kobs (deacetylation by HeLa nuclear extracts): 30 min; for kobs (deacetylation by HeLa nuclear extracts) / substrate turnover: HPLC analysis; for dethioacetylation by HeLa nuclear extracts: HDAC8 replaced with HeLa nuclear extracts, HPLC-based and DTNB-based assay formats; for substrate turnover: at 30 min
Experimental: (§1) HPLC-based enzymatic assay. The HPLC data shown in FIG. 4 was generated using the following procedure. The HDAC8-catalyzed dethioacetylation reaction was performed in the same HDAC8 assay solution as above-described, except that no thioacetic acid was added but purified HDAC8 and its substrate (i.e. the above-described peptide ii) were added to final concentrations of 375 nM and 0.3 mM, respectively. An enzymatic reaction was initiated by the addition of HDAC8 at room temperature and was allowed to be incubated at room temperature until quenched at different time points with the following stop solution: 3.2 M guanidinium chloride in 100 mM of sodium phosphate (pH 6.8). One portion (40 uL) of the HDAC8 assay mixture was quenched with 80 uL of the above stop solution, and was analyzed as set forth above by RP-HPLC with a C18 analytical column (100 Å, 0.46×25 cm), eluting with the following gradient of double deionized water containing 0.05% (v/v) trifluoroacetic acid (mobile phase A) and acetonitrile containing 0.05% (v/v) trifluoroacetic acid (mobile phase B): linear increase from 0% B to 35% B from 0-40 min (1 mL/min), and ultraviolet (UV) monitoring at 214 nm. The enzymatically formed dethioacetylated product (i.e. the above-referenced peptide i) was confirmed by its comigration with the chemically synthesized authentic sample and by mass spectrometric analysis with MALDI-TOF, and was quantified by HPLC peak integration and comparison with that of the synthetic authentic sample. The same assay protocol was used when the HeLa nuclear extracts were used instead of human HDAC8. Nearly same assay protocols were used when purified HDAC1 and HDAC2 were employed instead of HDAC8, with the following exceptions: i) For HDAC1 assays, 50 mM Tris.HCl (pH 8.0) was used instead of 25 mM Tris.HCl (pH 8.0); ii) HDAC2 assays were performed at 30° C. instead of RT; iii) HDAC1 and HDAC2 assay solutions were all quenched with the following stop solution: 1.0 M HCl and 0.16 M acetic acid. These changes were instituted to more clearly assess the selectivity.
DTNB-based enzymatic assay. The DTNB data shown in FIG. 4 was generated using the following procedure. A second portion (300 µL) of the above HDAC8 assay mixture was quenched with 600 µL of the stop solution: 3.2 M guanidinium chloride in 100 mM of sodium phosphate (pH 6.8), and was analyzed by the DTNB-based assay procedure according to the invention, i.e. 60 min after the quench and DTNB (100 µL) addition, A412 was recorded for each sample derived at different time points of the same assay reaction. Again, the same assay protocol was used when the HeLa nuclear extracts were used instead of human HDAC8. To measure the kinetic parameters for the thioacetyl-lysine p53 peptide as an in vitro HDAC8 substrate, all the assay reactions contained 375 nM of HDAC8, a range of substrate concentrations varied around the Km value, and were allowed to proceed at room temperature for 1 hour before quenching. Reaction velocities were determined under initial condition (substrate turnover <10%). This experiment was performed twice, and each duplicate measurement agreed within 20%. By using a non-linear least squares approach with the computer program Kaleidagraph (Reading, Pa., USA), kinetic parameters (kcat and Km) were derived from the Michaelis-Menten plot based on the experimental data.
Assay with HeLa nuclear extracts. In order to examine the selectivity of our newly developed DTNB-based spectrophotometric assay among different classical HDAC enzymes, we initially performed both the HPLC-based and the DTNB-based assays with the HeLa nuclear extracts enriched in HDAC1 and 2. The procedures for the HDAC8 assay were followed.

purified human HDAC1 = purified human HDAC1 (Homo sapiens, UniProt Q13547); assay: HPLC-based assay with purified HDAC1; assay type: biochemical; settings: for dethioacetylation by HDAC1: purified HDAC1, HPLC-based assay format
Chain of purified human HDAC1 (Q13547 whole entry): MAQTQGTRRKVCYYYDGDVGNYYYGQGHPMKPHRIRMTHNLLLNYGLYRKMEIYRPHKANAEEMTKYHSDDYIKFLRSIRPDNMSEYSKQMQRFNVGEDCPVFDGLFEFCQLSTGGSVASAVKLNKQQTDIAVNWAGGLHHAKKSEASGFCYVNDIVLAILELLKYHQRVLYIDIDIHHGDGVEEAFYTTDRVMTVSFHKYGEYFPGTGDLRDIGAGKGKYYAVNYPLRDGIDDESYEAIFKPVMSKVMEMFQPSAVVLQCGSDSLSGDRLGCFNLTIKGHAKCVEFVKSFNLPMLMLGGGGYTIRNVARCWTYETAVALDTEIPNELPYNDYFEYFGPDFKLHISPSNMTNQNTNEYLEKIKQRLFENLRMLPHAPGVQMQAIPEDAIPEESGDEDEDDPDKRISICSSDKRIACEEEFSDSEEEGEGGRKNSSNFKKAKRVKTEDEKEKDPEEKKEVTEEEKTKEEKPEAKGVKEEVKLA
Experimental: as §1, with “selectivity. […]” for “selectivity.”

purified human HDAC2 = purified human HDAC2 (Homo sapiens, UniProt Q92769); assay: HPLC-based assay with purified HDAC2; assay type: biochemical; settings: for dethioacetylation by HDAC2: purified HDAC2, 30° C., HPLC-based assay format
Chain of purified human HDAC2 (Q92769 whole entry): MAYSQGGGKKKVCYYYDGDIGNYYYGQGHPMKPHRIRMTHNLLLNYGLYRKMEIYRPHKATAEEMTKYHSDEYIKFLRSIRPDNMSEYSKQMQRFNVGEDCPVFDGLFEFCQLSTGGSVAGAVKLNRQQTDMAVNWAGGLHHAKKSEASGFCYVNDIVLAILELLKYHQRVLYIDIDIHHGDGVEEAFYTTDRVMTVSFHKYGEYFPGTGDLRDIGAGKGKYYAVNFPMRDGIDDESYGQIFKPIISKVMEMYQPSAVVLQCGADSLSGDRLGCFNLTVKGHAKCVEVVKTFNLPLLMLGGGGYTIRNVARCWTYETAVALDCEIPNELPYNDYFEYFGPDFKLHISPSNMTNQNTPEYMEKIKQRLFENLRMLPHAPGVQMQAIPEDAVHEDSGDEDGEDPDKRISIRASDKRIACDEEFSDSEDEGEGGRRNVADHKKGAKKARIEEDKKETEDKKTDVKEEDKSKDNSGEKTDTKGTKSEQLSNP
Experimental: as §1, with “selectivity. […]” for “selectivity.”

[2] = listed as thioacetyl-lysin peptide

## AcNH—RH(AcK)—(AcK)—CONH2
[1]
  kobs (deacetylation by HeLa nuclear extracts): 0.29±0.02 uM/(min·4 uL of the nuclear extracts)

## CSCC[C@H](NC(=O)[C@H](CC(C)C)NC(=O)[C@H](CCCCNC(C)=S)NC(=O)[C@H](CCCCN)NC(=O)[C@H](Cc1c[nH]cn1)NC(=O)[C@H](CCCNC(=N)N)NC(=O)[C@H](CO)NC(=O)[C@@H](NC(=O)[C@H](CO)NC(=O)[C@H](CCC(N)=O)NC(=O)CNC(=O)[C@H](CCCCN)NC(=O)[C@@H](N)CCCCN)[C@@H](C)O)C(=O)N[C@@H](Cc1ccccc1)C(=O)N[C@@H](CCCCN)C(=O)N[C@H](C(=O)N[C@@H](CCC(=O)O)C(=O)NCC(=O)O)[C@@H](C)O [thioacetyl-lysine p53 peptide, H2N-KKGQSTSRHK(ThAcK)LMFKTEG-COOH]
Purified human HDAC1
  dethioacetylation by HDAC1: no detectable dethioacetylation
Purified human HDAC1; [2]
  dethioacetylation by HDAC1: did not serve as a substrate
Purified human HDAC2
  dethioacetylation by HDAC2: no detectable dethioacetylation
Purified human HDAC2; [2]
  dethioacetylation by HDAC2: did not serve as a substrate
[1]
  dethioacetylation by HeLa nuclear extracts: no detectable dethioacetylation
[1]; listed as thioacetyl-lysine peptide
  dethioacetylation by HeLa nuclear extracts: did not serve as a substrate

## acetyl-lysine p53 peptide: human p53 C-terminal peptide (amino acid residue 372-389) containing Nε-acetyl-lysine at the 382 position (KKGQSTSRHKK(Ac)LMFKTEG; UniProt P04637 372-389, looked up, fragment)
Purified human HDAC1; purified HDAC1, at 2 h
  kobs (deacetylation by HDAC1): 0.41 ± 0.23 min⁻¹
Purified human HDAC2; purified HDAC2, at 30 min
  kobs (deacetylation by HDAC2): 6.78 ± 2.39 min⁻¹
[1]
  kobs (deacetylation by HeLa nuclear extracts): 0.23±0.01 uM/(min·4 uL of the nuclear extracts)
[1]; 4 uL of the HeLa nuclear extracts (9 mg of protein per mL)
  substrate turnover: 2.3%
[1]; 12 uL of the HeLa nuclear extracts (9 mg of protein per mL)
  substrate turnover: 6.5%

## AcNH—RH(ThAcK)(ThAcK)—CONH2
[1]
  dethioacetylation by HeLa nuclear extracts: no detectable dethioacetylation
